Measured values from patent US10359430B2, “Selective near-infrared optical imaging of necrotic cells and simultaneous cell fixing and counter staining with metallacrown complexes” (THE REGENTS OF THE UNIVERSITY OF MICHIGAN, priority 2015, dated 2019).

What was measured:
[1] = Photophysical properties of the metallacrowns in solid state and in aqueous solutions; format: physicochemical; conditions: room temperature, excitation at 370 nm
Description: FIG. 4. illustrates the normalized excitation (λem(Nd^3+)=1070 nm, λem(Yb^3+)=980 nm) and emission (λex=370 nm) spectra of Yb^3+[Zn(II)MCpyzHA], at the top, and Nd^3+[Zn(II)MCpyzHA] MCs, at the bottom, (solid or 200 μM solutions, room temperature).

[2] = Photophysical parameters in OPTI-MEM media, cell supernatant and HeLa cells; format: physicochemical
Description: The Yb^3+[Zn(II)MCpyzHA] complexes were dissolved in OPTI-MEM® medium with 2% SVF (without cells) and were incorporated in HeLa cells, both with and without exposure to UV light. The results in are shown in FIG. 20, (A) (corrected and normalized excitation) and FIG. 20, (B) (corrected and normalized emission). […] The present inventors developed instrumentation in order to collect photophysical properties of MCs inside of cancer cells. They measured quantitative photophysical parameters (quantum yields and life times) inside of the cells with equipment which is usually adapted for measuring of (quantum yields and life times) in solids or in concentrated solutions.
The Yb^3+[Zn(II)MCpyzHA] complexes were collected together with cell supernatant (SN) and with HeLa cells treated with N-acetyl cysteine, both with and without exposure to UV light. For SN1 and cells1, incubation with NAC took place for 30 minutes, then the cells were washed, and incubation with Yb^3+[Zn(II)MCpyzHA] took place for 15 minutes. For SN2 and cells2, incubation with Yb^3+[Zn(II)MCpyzHA] took place for 15 minutes, and then NAC was added and incubation with NAC took place for 30 minutes. The results in are shown in FIGS. 20C (corrected and normalized excitation) and 20D (corrected and normalized emission). […]

[3] = Photophysical properties of the metallacrowns in solid state and in aqueous solutions; format: physicochemical
HeLa cells [4] = experiment: NIR epifluorescence microscopy of HeLa cells (necrotic cell labelling, simultaneous staining and fixing); format: cell-based, Human
[5] = Photostability stress tests; format: physicochemical
Description: Photostability stress tests of Yb^3+[Zn(II)MCpyzHA] (Yb λem=980 nm) and Nd^3+[Zn(II)MCpyzHA] (Nd λem=1064 nm) and the commercially available dye for necrotic cells (Propidium Iodide) were performed. The complexes (150 μM) or dye (50 μM) were dissolved in water and the complexes were also dissolved in OPTI-MEM® media. The MC solutions were exposed to 5 hours of UV radiation (377 nm). The propidium iodide solution was exposed to 5 hours of UV radiation (530 nm).

HeLa cells [6] = experiment: NIR epifluorescence microscopy of HeLa cells (necrotic cell labelling, simultaneous staining and fixing); format: cell-based, Human; conditions: 150 μM complex and 3 μM propidium iodide together, UV light (377 nm) 5 minutes
Description: Cells were seeded in a 8-well Lab Tek Chamber coverglass (Nunc, Dutsher S.A., Brumath, France) at a density of 6×10^4 cells/well and cultured at 37° C. in 5% humidified CO2 atmosphere.
The continued incubation enabled the internalization of the complexes.
All of the previously mentioned incubated HeLa cells were then washed with fresh OPTI-MEM® media and were incubated with 3 μM propidium iodide for 5 minutes. Propidium iodide is a commercially available stain (emitting in the visible range) for necrotic cells, and was used to confirm cell necrosis.
i. 377 nm with 50 nm band-pass filter with 50 nm bandwidth for the excitation and 805 nm long-pass filter 805 nm or 996 nm band-pass filter with 70 nm bandwidth for YbIII emission in the NIR range.
ii. […] for the excitation and 805 nm long-pass filter 805 nm or 996 nm band-pass filter with 70 nm bandwidth for YbIII emission in the NIR range. […]

[7] = Table 3, No UV: After 5 h incubation with HeLa cells without illumination
[8] = Table 3, UV: After 5 h incubation with HeLa cells with UV illumination (during 8 min)

O=C([N-][O-])c1cnccn1.O=C([N-][O-])c1cnccn1.O=C([N-][O-])c1cnccn1.O=C([N-][O-])c1cnccn1.O=C([N-][O-])c1cnccn1.O=C([N-][O-])c1cnccn1.O=C([N-][O-])c1cnccn1.O=C([N-][O-])c1cnccn1.O=C([N-][O-])c1cnccn1.O=C([N-][O-])c1cnccn1.O=C([N-][O-])c1cnccn1.O=C([N-][O-])c1cnccn1.O=C([N-][O-])c1cnccn1.O=C([N-][O-])c1cnccn1.O=C([N-][O-])c1cnccn1.O=C([N-][O-])c1cnccn1.O=S(=O)([O-])C(F)(F)F.O=S(=O)([O-])C(F)(F)F.O=S(=O)([O-])C(F)(F)F.[Nd+3].[Zn+2].[Zn+2].[Zn+2].[Zn+2].[Zn+2].[Zn+2].[Zn+2].[Zn+2].[Zn+2].[Zn+2].[Zn+2].[Zn+2].[Zn+2].[Zn+2].[Zn+2].[Zn+2].c1ccncc1.c1ccncc1.c1ccncc1.c1ccncc1.c1ccncc1.c1ccncc1.c1ccncc1.c1ccncc1 [Nd^3+[Zn(II)MCpyzHA]]
Q (quantum yield), D2O ([1]; 200 μM in D2O): 6.17(9) · 10^−2% | Q (quantum yield), H2O ([1]; 200 μM in H2O): 7.7(1) · 10^−3% | Q (quantum yield), Solid ([1]; solid state): 0.444(9) % | τ2 ([2]; Table 3, In HeLa cells): 0.808(8) μs | τ2 contribution (longer component) ([2]; Table 3, In HeLa cells): 100% | Quantum yield [2, 7]: 7.50(5) · 10^−3% | τ1 [2, 7]: 0.261(1) μs | τ1 contribution [2, 7]: 85% | τ2 [2, 7]: 0.98(1) μs | τ2 contribution [2, 7]: 15% | Quantum yield ([2]; Table 3, OptiMEM): 7.33(1) · 10^−3% | τ1 ([2]; Table 3, OptiMEM): 0.256(6) μs | τ1 contribution ([2]; Table 3, OptiMEM): 90% | τ2 ([2]; Table 3, OptiMEM): 1.1(1) μs | τ2 contribution ([2]; Table 3, OptiMEM): 10% | Quantum yield ([2]; Table 3, OptiMEM-UV 1 h 30 min): 7.7(1) · 10^−3% | τ1 ([2]; Table 3, OptiMEM-UV 1 h 30 min): 0.352(2) μs | τ1 contribution ([2]; Table 3, OptiMEM-UV 1 h 30 min): 67% | τ2 ([2]; Table 3, OptiMEM-UV 1 h 30 min): 0.874(7) μs | τ2 contribution ([2]; Table 3, OptiMEM-UV 1 h 30 min): 33% | Quantum yield [2, 8]: 6.2(1) · 10^−3% | τ1 [2, 8]: 0.376(3) μs | τ1 contribution [2, 8]: 60% | τ2 [2, 8]: 0.83(2) μs | τ2 contribution [2, 8]: 40% | Change of luminescent properties in media, cell supernatant or HeLa cells ([2]; with/without exposure to UV light): did not change in OPTI-MEM® media or inside of the HeLa cells | τ (luminescence lifetime), D2O ([3]; 200 μM in D2O, room temperature, excitation at 355 nm): 1.29(1) μs | τ (luminescence lifetime), H2O ([3]; 200 μM in H2O, room temperature, excitation at 355 nm): 0.214(4) μs | q (number of coordinated water molecules) ([3]; calculated from lifetimes, estimated error ±0.2): 0.1 | τ (luminescence lifetime), Solid ([3]; solid state, room temperature, excitation at 355 nm): 1.71(1) μs | Fixing and staining of HeLa cells (HeLa cells [4]; 150 μM, 15 minutes, UV light (377 nm) 8 minutes, further 1 hour): fixed and stained | Photostability ([5]; 150 μM in water and OPTI-MEM media, 5 hours of irradiation with 377 nm light): fully photostable

CC[N+](C)(CC)CCC[n+]1c(-c2ccccc2)c2cc(N)ccc2c2ccc(N)cc21.[I-].[I-] [propidium iodide, reference compound]
Specificity of the dye for cell state (HeLa cells [4]; 150 μM complex and 3 μM propidium iodide together, UV light (377 nm) 5 minutes): specific for dead and apoptotic cells | Photostability (fluorescence intensity) ([5]; 50 μM in water, 5 hours of irradiation at 530 nm): dropped half of its initial intensity | Incubation time after which emission was observed in cells after UV illumination (HeLa cells [6]): 15 min
